Assay results from patent US20230250066A1, “HERBICIDAL CINNOLINE DERIVATIVES” (SYNGENTA CROP PROTECTION AG, priority 2020, published 2023).

How the values were obtained:
Assay type in all cases: in vivo
[1] = system: Echinochloa crus-galli (ECHCG); experiment: Pre-emergence herbicidal test; conditions: 1000 g/ha, evaluated after 13 days
[2] = system: Abutilon theophrasti (ABUTH); experiment: Pre-emergence herbicidal test; conditions: 1000 g/ha, evaluated after 13 days
Setaria faberi (SETFA) [3] = experiment: Pre-emergence herbicidal test; conditions: 1000 g/ha, evaluated after 13 days
[4] = system: Amaranthus retoflexus (AMARE); experiment: Pre-emergence herbicidal test; conditions: 1000 g/ha, evaluated after 13 days
Zea mays (ZEAMX) [5] = experiment: Post-emergence herbicidal test; conditions: 1000 g/ha unless otherwise stated, evaluated after 13 days
Summary of the method: (§1)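 Spray treatment, 1000 g/ha unless noted; vehicle acetone/water (50:50), 0.5% Tween 20. Glasshouse 24/16° C., 14 h light, 65% humidity. Percent injury rated at 13 d, banded 0–5.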

[6] = system: Amaranthus retoflexus (AMARE); experiment: Post-emergence herbicidal test; conditions: 1000 g/ha unless otherwise stated, evaluated after 13 days
Summary of the method: as §1

[7] = system: Echinochloa crus-galli (ECHCG); experiment: Post-emergence herbicidal test; conditions: 1000 g/ha unless otherwise stated, evaluated after 13 days
Summary of the method: as §1

[8] = system: Abutilon theophrasti (ABUTH); experiment: Post-emergence herbicidal test; conditions: 1000 g/ha unless otherwise stated, evaluated after 13 days
Summary of the method: as §1

Setaria faberi (SETFA) [9] = experiment: Post-emergence herbicidal test; conditions: 1000 g/ha unless otherwise stated, evaluated after 13 days
Summary of the method: as §1

[10] = system: Ipomoea hederacea (IPOHE); experiment: Post-emergence herbicidal test; conditions: 1000 g/ha unless otherwise stated, evaluated after 13 days
Summary of the method: as §1

Zea mays (ZEAMX) [11] = experiment: Pre-emergence herbicidal test; conditions: 1000 g/ha, evaluated after 13 days
[12] = system: Ipomoea hederacea (IPOHE); experiment: Pre-emergence herbicidal test; conditions: 1000 g/ha, evaluated after 13 days

SMILES | percentage damage caused to the plant, five-point scale, ECHCG [1] | percentage damage caused to the plant, five-point scale, ABUTH [2] | percentage damage caused to the plant, five-point scale, SETFA (Setaria faberi (SETFA) [3]) | percentage damage caused to the plant, five-point scale, AMARE [4] | percentage damage caused to the plant, ZEAMX (five-point scale) (Zea mays (ZEAMX) [5]) | percentage damage caused to the plant, AMARE (five-point scale) [6] | percentage damage caused to the plant, ECHCG (five-point scale) [7] | percentage damage caused to the plant, ABUTH (five-point scale) [8] | percentage damage caused to the plant, SETFA (five-point scale) (Setaria faberi (SETFA) [9]) | percentage damage caused to the plant, IPOHE (five-point scale) [10] | percentage damage caused to the plant, five-point scale, ZEAMX (Zea mays (ZEAMX) [11]) | percentage damage caused to the plant, five-point scale, IPOHE [12]
CCOC(=O)c1nn(-c2ccc(OC(F)(F)F)cc2)c2cc(Br)cc(S(C)(=O)=O)c2c1=O [Compound P11, ethyl 7-bromo-5-methylsulfonyl-4-oxo-1-[4-(trifluoromethoxy)phenyl]cinnoline-3-carboxylate] | 0 (0=0%) | 0 (0=0%) | 0 (0=0%) | 0 (0=0%) | 1 (1=10-20%) | 0 (0=0%) | 0 (0=0%) | 1 (1=10-20%) | 1 (1=10-20%) | 0 (0=0%) | 0 (0=0%) | 0 (0=0%)
CCOC(=O)c1nn(-c2ccc(OC(F)(F)F)cc2)c2ccc(C#N)c(S(C)(=O)=O)c2c1=O [Compound P47, ethyl 6-cyano-5-methylsulfonyl-4-oxo-1-[4-(trifluoromethoxy)phenyl]cinnoline-3-carboxylate] | 0 (0=0%) | 0 (0=0%) | 0 (0=0%) | 0 (0=0%) | 0 (0=0%) | 0 (0=0%) | 1 (1=10-20%) | 0 (0=0%) | 1 (1=10-20%) | 0 (0=0%) | 0 (0=0%) | 0 (0=0%)
CCOC(=O)c1nn(-c2ccc(OC(F)(F)F)cc2)c2cccc(SCC)c2c1=O [Compound P23, ethyl 5-ethylsulfanyl-4-oxo-1-[4-(trifluoromethoxy)phenyl]cinnoline-3-carboxylate] | 0 (0=0%) | 0 (0=0%) | 0 (0=0%) | 0 (0=0%) | 1 (1=10-20%) | 0 (0=0%) | 1 (1=10-20%) | 1 (1=10-20%) | 1 (1=10-20%) | 1 (1=10-20%) | 1 (1=10-20%) | 0 (0=0%)
CCOC(=O)c1nn(-c2ccc(OC(F)(F)F)cc2)c2cc(F)cc(S(C)(=O)=O)c2c1=O [Compound P52, ethyl 7-fluoro-5-methylsulfonyl-4-oxo-1-[4-(trifluoromethoxy)phenyl]cinnoline-3-carboxylate] | 3 (3=41-60%) | 1 (1=10-20%) | 4 (4=61-80%) | 1 (1=10-20%) | 1 (1=10-20%) | 1 (1=10-20%) | 2 (2=21-40%) | 1 (1=10-20%) | 2 (2=21-40%) | 0 (0=0%) | 0 (0=0%) | 0 (0=0%)
CCCCCCCCCCCOC(=O)c1nn(-c2ccc(OC(F)(F)F)cc2)c2cccc(S(C)(=O)=O)c2c1=O [Compound P60, undecyl 5-methylsulfonyl-4-oxo-1-[4-(trifluoromethoxy)phenyl]cinnoline-3-carboxylate] | 1 (1=10-20%) | 1 (1=10-20%) | 4 (4=61-80%) | 1 (1=10-20%) | 1 (1=10-20%) | 1 (1=10-20%) | 1 (1=10-20%) | 1 (1=10-20%) | 1 (1=10-20%) | 1 (1=10-20%) | 1 (1=10-20%) | 0 (0=0%)
CS(=O)(=O)c1cccc2c1c(=O)c(C(=O)O)nn2-c1ccc(Cl)cc1F [Compound P41, 1-(4-chloro-2-fluoro-phenyl)-5-methylsulfonyl-4-oxo-cinnoline-3-carboxylic acid] | 2 (2=21-40%) | 1 (1=10-20%) | 4 (4=61-80%) | 1 (1=10-20%) | 1 (1=10-20%) | 1 (1=10-20%) | 4 (4=61-80%) | 1 (1=10-20%) | 4 (4=61-80%) | 1 (1=10-20%) | 1 (1=10-20%) | 1 (1=10-20%)
O=C(O)c1nn(-c2ccc(OC(F)(F)F)cc2)c2cccc([S+]([O-])CC(F)(F)F)c2c1=O (stereo not drawn) [Compound P37, 4-oxo-5-(2,2,2-trifluoroethylsulfinyl)-1-[4-(trifluoromethoxy)phenyl]cinnoline-3-carboxylic acid] | 0 (0=0%) | 1 (1=10-20%) | 0 (0=0%) | 0 (0=0%) | 1 (1=10-20%) | 0 (0=0%) | 1 (1=10-20%) | 1 (1=10-20%) | 1 (1=10-20%) | 1 (1=10-20%) | 0 (0=0%) | 0 (0=0%)
CCOC(=O)c1nn(-c2ccc(OC(F)(F)F)cc2)c2ccc(Br)c(S(C)(=O)=O)c2c1=O [Compound P10, ethyl 6-bromo-5-methysulfonyl-4-oxo-1-[4-(trifluoromethoxy)phenyl]cinnoline-3-carboxylate] | 0 (0=0%) | 1 (1=10-20%) | 1 (1=10-20%) | 1 (1=10-20%) | 1 (1=10-20%) | 1 (1=10-20%) | 1 (1=10-20%) | 1 (1=10-20%) | 1 (1=10-20%) | 0 (0=0%) | 0 (0=0%) | 0 (0=0%)
COc1cc(S(C)(=O)=O)c2c(=O)c(C(=O)O)nn(-c3ccc(OC(F)(F)F)cc3)c2c1 [Compound P19, 7-methoxy-5-methylsulfonyl-4-oxo-1-[4-(trifluoromethoxy)phenyl]cinnoline-3-carboxylic acid] | 2 (2=21-40%) | 0 (0=0%) | 5 (5=81-100%) | 1 (1=10-20%) | 1 (1=10-20%) | 1 (1=10-20%) | 2 (2=21-40%) | 1 (1=10-20%) | 3 (3=41-60%) | 1 (1=10-20%) | 0 (0=0%) | 0 (0=0%)
